Type in all cases: in vivo, male Fischer 344 rats
The test system of series [1] is GST-P-positive foci. The series is described as follows: Analysis of GST-P-stained liver specimens (GST-P-positive foci). The conditions noted are these: for Focal area (GST-P positive) / Number of foci (GST-P positive) / Number of foci, focal size 0-0.03 mm^2 / Number of foci, focal size 0.03-0.1 mm^2 / Number of foci, focal size 0.1-0.3 mm^2 / Number of foci, focal size 0.3-1.0 mm^2 / Number of foci, focal size 1.0-3.0 mm^2 / Number of foci, focal size 3.0-10.0 mm^2 / Number of foci, focal size 10.0-30.0 mm^2 / Number of foci, focal size 30.0-100.0 mm^2 / Number of foci, focal size 100.0- mm^2: eight weeks; for GST-P-positive foci, comparison between groups in words: group 4 vs group 2, groups 5, 6 vs group 3, groups 7, 8, 9 vs group 4. Here is the method: (§1) To the animals in group 1, only a CRF-1 basal diet (Oriental Yest Co., Ltd., Tokyo) was fed. To the ones in group 2, only a CDAA (Dyets Inc., USA) diet was fed. The CDAA diet, whose composition is shown in Table 1, was fed from the day before the 1st administration day of DEN (day 1) and was stored under refrigeration until use. To the ones in group 3, a CRF-1 basal diet was fed and DEN was treated. The dose of DEN was set at 95 mg/kg body weight (2 ml/kg body weight) and rats were intraperitoneally treated once a week for the first three weeks (day 1, 8 and 15). To the ones in group 4, a CDAA diet was fed and DEN was treated. To the ones in group 5, a CRF-1 basal diet was fed and given DEN and PH. In the partial hepatectomy (PH), the left lobe and the right and left sublobes of the median lobe of the liver were excised. PH was carried out on the day before the first administration of PB (day 28). To the ones in group 6, a CRF-1 basal diet was fed and given DEN, PH, and PB. The dose of PB was set at 60 mg/kg body weight (2 ml/kg body weight) and rats were intraperitoneally treated three times a week from week 5 (day 29, 32, 34, 36, 39, 41, 43, 46, 48, 50, 53, and 55). To the ones in group 7, a CDAA diet was fed and given DEN and PH. To the ones in group 8, a CDAA diet was fed and given DEN and PB. To the ones in group 9, a CDAA diet was fed and given DEN, PH, and PB. This experiment was started on Apr. 10, 1997.
Immunohistochemical staining using polyclonal antibodies against GST-P was applied to facilitate quantitative evaluation of altered hepatocellular foci. Paraffin sections were stained immunohistochemically using the labeled streptavidin-biotin-peroxidase complex (LSAB) method for binding of rabbit anti-rat GST-Yp polyclonal antibody (1:1000; BIO PREP, IRELAND). The analytical procedure for the GST-P-stained specimens was as follows. Photographs (x10) of GST-P-stained specimens of whole cross-section of liver were taken. Photographs were jointed to construct complete cross-sectional image. GST-P-positive foci (hereinafter foci) were painted out with felt pen. Cross-sectional images were processed by Image Scanner (GT-6500, SEIKO EPSONCO., Ltd., Nagano) (using EpScan Mac). The area of each focus and total cross-sectional area of each image were measured using Adobe Photoshop and NIH image. Number of foci per unit area and focal area per unit area were calculated from data on number of foci, mean focal area, total focal area, and total organ area.
All examination data were statistically evaluated by F-t test. First, equal dispersion was tested by F test (significance level 5%). Student-t test was carried out where population variance was judged to be equal, and Welch-t test where it was judged different. Bilateral significance level was set at 5% and 1%.

The nature of series [2]: Survival, final body weight and liver weight, 8-week study (Experimental Example 1). The conditions noted are these: mean ± spread; DEN 95 mg/kg i.p. day 1, 8, 15; PB 60 mg/kg i.p. three times a week from week 5; PH day 28. Here is the method: The eighty six male 4-week-old Fischer 344 rats used in this study were obtained from Charles River Japan, Inc. (Kanagawa). Grouping of the rats was performed according to the latest body weight. The animals were housed, two/cage in a climate-controlled animal room at temperature of 24±3° C., relative humidity of 55±15%, and ventilation rate of 10-20 times/h with 12-hour illumination, and allowed free access to the prescribed diets in every group and tap water.
To the animals in group 1, only a CRF-1 basal diet (Oriental Yest Co., Ltd., Tokyo) was fed. To the ones in group 2, only a CDAA (Dyets Inc., USA) diet was fed. The CDAA diet, whose composition is shown in Table 1, was fed from the day before the 1st administration day of DEN (day 1) and was stored under refrigeration until use. To the ones in group 3, a CRF-1 basal diet was fed and DEN was treated. The dose of DEN was set at 95 mg/kg body weight (2 ml/kg body weight) and rats were intraperitoneally treated once a week for the first three weeks (day 1, 8 and 15). To the ones in group 4, a CDAA diet was fed and DEN was treated. To the ones in group 5, a CRF-1 basal diet was fed and given DEN and PH. In the partial hepatectomy (PH), the left lobe and the right and left sublobes of the median lobe of the liver were excised. […]
All examination data were statistically evaluated by F-t test. […]

Series [3] concerns liver. The series is described as follows: Autopsy and histopathological examination of liver (H.E.-stained specimens). The conditions noted are these: eight weeks; for Histopathological findings of H.E.-stained liver, in words: comparator group as stated in the value (groups 2 and 3: findings not observed in group 1 CRF-1). The method, then: as §1
At eight weeks (day 60-63), autopsy was performed after the animals were sacrificed by exsanguination under ether anesthesia. After the liver had been excised and fixed in 10% neutral buffered formalin fixative, paraffin sections and H.E.-stained specimens were prepared and microscopic examination was carried out.

Regarding `CCN(CC)N=O` [CRF-1+DEN, Diethylnitrosoamine], in series [1], the “Focal area (GST-P positive)” value came out at 0.006 ± 0.002 CT mm^2/mm^2Liver; the “Number of foci (GST-P positive)” value is recorded as 0.350 ± 0.083 CT /mm^2Liver; the “Number of foci, focal size 0-0.03 mm^2” value was 0.312 ± 0.070 CT /mm^2Liver; the “Number of foci, focal size 0.03-0.1 mm^2” value is recorded as 0.035 ± 0.021 CT /mm^2Liver. Besides, in series [1], the “Number of foci, focal size 0.1-0.3 mm^2” value worked out at 0.003 ± 0.005 CT /mm^2Liver; the “Number of foci, focal size 0.3-1.0 mm^2” value was 0.000 ± 0.000 CT /mm^2Liver; the “Number of foci, focal size 1.0-3.0 mm^2” value amounted to 0.000 ± 0.000 CT /mm^2Liver; the “Number of foci, focal size 3.0-10.0 mm^2” value came out at 0.000 ± 0.000 CT /mm^2Liver. Besides, in series [1], the “Number of foci, focal size 10.0-30.0 mm^2” value came to 0.000 ± 0.000 CT /mm^2Liver; the “Number of foci, focal size 30.0-100.0 mm^2” value stood at 0.000 ± 0.000 CT /mm^2Liver; the “Number of foci, focal size 100.0- mm^2” value is listed as 0.000 ± 0.000 CT /mm^2Liver; the “GST-P-positive foci, comparison between groups in words” value is given as “foci were observed”. For the same molecule, the “Body weight (day 57)” value in series [2] was found to be 257.52 ± 5.11 CT g. Further, in series [3], the “Histopathological findings of H.E.-stained liver, in words” value was “slight vacuolar degeneration and altered hepatocellular foci”.

In the case of `CCN(CC)N=O` [CRF-1+DEN+PH, Diethylnitrosoamine], in series [1], the “Focal area (GST-P positive)” value was determined as 0.015 ± 0.006 CT mm^2/mm^2Liver; the “Number of foci (GST-P positive)” value is reported as 0.467 ± 0.162 . CT /mm^2Liver; the “Number of foci, focal size 0-0.03 mm^2” value is 0.335 ± 0.124 . CT /mm^2Liver; the “Number of foci, focal size 0.03-0.1 mm^2” value came out at 0.105 ± 0.030 CT /mm^2Liver. Moreover, in series [1], the “Number of foci, focal size 0.1-0.3 mm^2” value was 0.023 ± 0.014 . CT /mm^2Liver; the “Number of foci, focal size 0.3-1.0 mm^2” value stood at 0.003 ± 0.002 CT /mm^2Liver; the “Number of foci, focal size 1.0-3.0 mm^2” value is recorded as 0.000 ± 0.000 . CT /mm^2Liver; the “Number of foci, focal size 3.0-10.0 mm^2” value is 0.000 ± 0.000 . CT /mm^2Liver. Also, in series [1], the “Number of foci, focal size 10.0-30.0 mm^2” value is listed as 0.000 ± 0.000 . CT /mm^2Liver; the “Number of foci, focal size 30.0-100.0 mm^2” value is 0.000 ± 0.000 . CT /mm^2Liver; the “Number of foci, focal size 100.0- mm^2” value is recorded as 0.000 ± 0.000 . CT /mm^2Liver; the “GST-P-positive foci, comparison between groups in words” value was “focal areas were elevated”. The “Body weight (day 57)” value in series [2] is on record as 263.85 ± 3.96 ** * g. For the same molecule, in series [3] (H.E.-stained liver), the “Altered hepatocellular foci, number of animals by grade (±, +, 2+, 3+)” value was 4 and the “Vacuolar degeneration, number of animals by grade (±, +, 2+, 3+)” value came to 4. The “Histopathological findings of H.E.-stained liver, in words” value in series [3] is given as “altered hepatocellular foci were more marked than in group 3 (CRF-1+DEN)”.

For the origin of these results see patent US20020062491A1, “Method of producing primary hepatocellular carcinoma-bearing model animals” (WELFIDE CORPORATION, priority 2000, published 2002).
